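Grown in 96-well plates, cells were treated for 48 hours with each compound at five concentrations. Insufficient inhibition: endpoint recorded as highest concentration tested. Definition used: TGI = concentration required for complete inhibition of growth.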
Columns and labels:
Assay in all cases: inhibition of tumour cell growth, NCI panel, 48 h
XF 498 CNS = system: XF 498 CNS
DLD-1 colon = system: DLD-1 colon
SF-268 CNS = system: SF-268 CNS
KM20L2 colon = system: KM20L2 colon
DMS 114 small cell lung = system: DMS 114 small cell lung
HOP-18 NSCLC = system: HOP-18 NSCLC
DMS 273 small cell lung = system: DMS 273 small cell lung
LXFL 529 NSCLC = system: LXFL 529 NSCLC
UACC-257 melanoma = system: UACC-257 melanoma
M19-MEL melanoma = system: M19-MEL melanoma
SNB-78 CNS = system: SNB-78 CNS
HOP-62 NSCLC = system: HOP-62 NSCLC
HCT-15 colon = system: HCT-15 colon

| SMILES | TGI (XF 498 CNS) | TGI (DLD-1 colon) | TGI (SF-268 CNS) | TGI (KM20L2 colon) | TGI (DMS 114 small cell lung) | TGI (HOP-18 NSCLC) | TGI (DMS 273 small cell lung) | TGI (LXFL 529 NSCLC) | TGI (UACC-257 melanoma) | TGI (M19-MEL melanoma) | TGI (SNB-78 CNS) | TGI (HOP-62 NSCLC) | TGI (HCT-15 colon) |
| --- | --- | --- | --- | --- | --- | --- | --- | --- | --- | --- | --- | --- | --- |
| CCCCC1(OC(=O)CCC(=O)O)CCC2(CCC(C)C(C/C=C(C)/C=C/C(O)C(C)/C=C/C(=O)O)O2)OC1CC/C(C)=C/C(=O)O (stereo not drawn) | 4.66 µM | 13.8 µM | 7.22 µM | 46.8 µM | 8.56 µM | 29.8 µM | 18.2 µM | 3.83 µM | 2.57 µM | 7.95 µM | 7.75 µM | 4.96 µM | 12.4 µM |
| O=C(/C=C\c1cccc2ccccc12)c1ccc(Br)cc1 |  | 38.4 µM | 53.1 µM | 32.2 µM | 32.2 µM | 43.4 µM | 34.5 µM | 32.8 µM | 51.9 µM | 33.9 µM | 41.5 µM | > 100 µM | 34.7 µM |
| N=c1oc2cc(O)c(O)cc2cc1C(N)=O | > 100 µM | > 100 µM | > 100 µM | > 100 µM | > 100 µM |  | > 100 µM | > 100 µM | > 100 µM | > 100 µM | > 100 µM | > 100 µM | > 100 µM |
| CN(C)c1cccc(-c2cc(=O)c3cc4c(cc3[nH]2)OCO4)c1 | 7.24 µM | > 100 µM | 31.4 µM | 0.515 µM |  |  |  | > 48.4 µM | > 100 µM | > 100 µM | > 100 µM | > 73.9 µM | > 90 µM |
| NC(=S)Nc1nnc(-c2ccc(-c3nnc(NC(N)=S)o3)cc2)o1 |  | > 100 µM | > 100 µM | > 100 µM | > 100 µM | > 100 µM | > 100 µM | > 100 µM | > 100 µM | > 100 µM | > 100 µM | > 100 µM | > 100 µM |
| O=C(/C=C(\O)C(=O)O)/C=C(\O)c1ccccc1Cl | > 100 µM | > 100 µM | > 100 µM | > 100 µM | > 100 µM | > 100 µM | > 100 µM | > 100 µM | > 100 µM |  |  | > 100 µM | > 100 µM |
| CC(C)C1=CC(=O)C(C)(C2=NC(C)(C)CO2)c2ccccc21 (stereo not drawn) | > 100 µM | > 100 µM | > 100 µM | > 100 µM | > 100 µM | > 100 µM | > 100 µM | > 100 µM | > 100 µM | > 100 µM |  | > 100 µM | > 100 µM |
| Cc1cccc(NC(=O)CSc2nnc(Cc3ccccc3)o2)c1 |  | > 100 µM | > 100 µM | > 100 µM | > 100 µM | > 100 µM | > 100 µM | > 100 µM | > 100 µM |  | > 100 µM | > 100 µM | > 100 µM |

— PubChem BioAssay (NCI)
